{"source": "paper PMC7756341", "about": "“Liposomal FRET Assay Identifies Potent Drug‐Like Inhibitors of the Ceramide Transport Protein (CERT)” (Chemistry (Weinheim an Der Bergstrasse, Germany), 2020)", "biological_target": "T1, CERT (Homo sapiens, UniProt Q9Y5P4)", "T1 construct": "made in house; host or cells: E. coli BL21 (DE3), pET-28a(+)", "T1 sequence (Q9Y5P4 1-598 isoform Q9Y5P4-2)": "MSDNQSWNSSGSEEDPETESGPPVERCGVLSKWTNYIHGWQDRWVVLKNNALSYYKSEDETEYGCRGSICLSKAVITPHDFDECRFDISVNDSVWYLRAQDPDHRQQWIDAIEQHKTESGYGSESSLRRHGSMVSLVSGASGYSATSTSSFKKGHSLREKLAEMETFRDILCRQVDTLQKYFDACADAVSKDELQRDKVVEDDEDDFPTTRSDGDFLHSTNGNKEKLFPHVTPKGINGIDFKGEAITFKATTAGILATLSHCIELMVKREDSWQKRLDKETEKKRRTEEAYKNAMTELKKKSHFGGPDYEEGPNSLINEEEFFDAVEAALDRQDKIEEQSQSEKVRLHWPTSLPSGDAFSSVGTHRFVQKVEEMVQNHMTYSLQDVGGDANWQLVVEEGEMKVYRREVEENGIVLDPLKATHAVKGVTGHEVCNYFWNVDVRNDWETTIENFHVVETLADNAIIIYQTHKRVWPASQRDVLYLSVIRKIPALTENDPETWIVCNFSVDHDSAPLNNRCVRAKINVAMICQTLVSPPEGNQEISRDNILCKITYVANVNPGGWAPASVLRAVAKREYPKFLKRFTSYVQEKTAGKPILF", "test": "NR-ceramide fluorescence competition assay", "format": "binding", "settings": "1 μM Nile red ceramide", "excerpt": "Having the identified hits from CERT-transfer assay, we were interested in further understanding the relationship between the CERT-transfer inhibitory activity and CERT-binding affinity. With this goal in mind, we have developed a homogenous competitive assay based on the binding of fluorescently-labeled ceramide to CERT-protein (Fig S6). It’s well known that Nile Red is […]\nthan in hydrophilic one. Based on this knowledge, we have designed a fluorescently-labeled probe in which the Nile Red-tag was incorporated into the ceramide fatty acid moiety. The NR-ceramide […]\nexcellent signal-to-noise ratio (28-fold, Fig S7.A). Equilibration takes ~1h of incubation at 30°C.\nFurthermore, this assay is a simple mix-and read format and uses only low amounts of fluorophore (1µM) and CERT-protein (12.5µg/assay).\nThe assay was performed in non-binding black-bottom 96-well microplate (Greiner Bio-One). To each well was added 1µL HPA12 (final concentration 2.5µM) or DMSO, followed by 98 µL of the CERT aliquot (12.5µg/well). After the mixture was incubated for 40 min at 30°C, 1µL NR-ceramide (final concentration 1µM) was added. Controls were triplicates of 10mM Tris.HCl buffer (pH 7.4, 250 mM sucrose) with 2µL DMSO, CERT aliquot (12.5µg/well) with 2µL DMSO, and 1µL NR-ceramide (final concentration 1µM) in 10mM Tris.HCl buffer (pH 7.4, 250 mM sucrose) with 1µL DMSO. The plate was then sealed with transparent Thermowell seal tape and placed in the microplate reader (LABTECH) at 30°C with shaking. The fluorescence was measured from the top over 80min (number of cycles 35, delay 70 sec) with excitation filter 540 nm and emission filter 640 nm. The competitive CERT-binding activity was calculated using the formula: Ix = I(À2-Y)/I0(À1-X), where À1 is the average of the florescence of the control of NR-ceramide in Tris.HCl buffer, X is the average of the fluorescence of the buffer alone, À2 is the fluorescence average of the assay mixture, Y is the fluorescence average of the CERT aliquot with inhibitor/DMSO (Fig […]\nIt is however lower than the differentiation in the transfer assay (Fig S8B).\n3.2 High throughput screening for CERT-activity and Data analysis\nIn order to validate the performance of developed assay in high-throughput screening format, the hits from ‘confirmed-hit group’ (45 hits) were screened for their competitive CERT-binding activity. The assay was performed as mentioned in the previous sub-section 3.1. Briefly, 1µL tested compound (final concentration 1µM, 2.5µM, 5µM, 10µM) or DMSO for control, and 98 µL CERT stock solution were sequentially added into a non-binding 96-well microplate. The plate was sealed and incubated at 30°C for 40 min, before 1µL NR-ceramide (final concentration 1µM) was added.\nControls per plate were triplicates of 10mM Tris.HCl buffer (pH 7.4, 250 mM sucrose) with 2µL DMSO, CERT aliquot (12.5µg/well) with 2µL DMSO, 1µL NR-ceramide (final concentration 1µM) in 10mM Tris.HCl buffer (pH 7.4, 250 mM sucrose), and HPA12 as a reference inhibitor (final concentration of 1µM, and 2.5µM, 5µM). The plate was sealed with transparent Thermowell seal tape and the assay was allowed to proceed as described above using excitation filter 540 nm and emission filter 640 nm. The competitive CERT-binding activity was calculated using the formula: Ix = I(À2-Y)/I0(À1-X), where À1 is the average of the florescence of the control 1µL NR-ceramide in Tris.HCl buffer, X is the average of the fluorescence of the buffer alone, À2 is the average of the fluorescence of assay mixture treated with tested compound or DMSO, Y is the average of the fluorescence of CERT aliquot with inhibitor/DMSO.", "data": [{"smiles": "CCCCCCCCCCCC(=O)NC(CO)CC(O)c1ccccc1", "note": "(centres unmarked) [HPA-12, N-(3Hydroxy-1-hydroxymethyl-3-phenylpropyl)-dodecamide]", "values": [{"measurement": "activity in the NR ceramide competition assay", "result": "reverted to approximately the initial value"}]}, {"smiles": "CC1=NN(c2ccc(C)c(C)c2)C(=O)/C1=N\\Nc1cccc(-c2cccc(C(=O)O)c2)c1O", "note": "[17C9, Eltrombopag]", "values": [{"measurement": "activity in the NR ceramide competition assay", "result": "very strong competition"}]}, {"smiles": "O=C(NC1CCN(CCCCC2(C(=O)NCC(F)(F)F)c3ccccc3-c3ccccc32)CC1)c1ccccc1-c1ccc(C(F)(F)F)cc1", "note": "[8E8, lomitapide]", "values": [{"measurement": "activity in the NR ceramide competition assay", "result": "high activity"}]}, {"smiles": "Cc1cc(C2=NOC(c3cc(Cl)cc(Cl)c3)(C(F)(F)F)C2)ccc1C(=O)NCC(=O)NCC(F)(F)F", "note": "(centres unmarked) [20D5, Fluralaner]", "values": [{"measurement": "activity in the NR ceramide competition assay", "result": "high activity"}]}, {"smiles": "CCCC(=O)OCOC(=O)C1=C(C)NC(C)=C(C(=O)OC)C1c1cccc(Cl)c1Cl", "note": "(centres unmarked) [6B11, Clevidipine butyrate]", "values": [{"measurement": "activity in the NR ceramide competition assay", "result": "high activity"}]}]}
